From patent publication US20230107770A1, “METHOD OF ENHANCING IMMUNOTHERAPY USING ER STRESS PATHWAY INHIBITORS” (H. LEE MOFFITT CANCER CENTER AND RESEARCH INSTITUTE, INC., priority 2020, published 2023)
“Also recorded” adds a separate entry of the source.

Legend:
human FSH-CER T cells = test: Expansion of IL-2-supplemented human FSH-CER T cells with ER stress inhibitors; type: cell-based; conditions: treatment for 5 days
Method: The role of the PERK-Chop in the expansion of tumor TRM cells using conditional T cell Chop-null mice was evaluated. In agreement with the inhibitory effect of Chop in TRM development, higher frequency of TRM cells was detected in tumors from T cell-Chop^KO mice compared to controls (FIG. 23A). Next, we tested the effect of the inhibition of PERK (AMG-44) and IRE 1α (MKC8866) during the expansion of IL-2-supplemented human FSH-CER T cells. […] Also, we evaluated the therapeutic effect of the combination of ER stress-targeting therapy and FSH-CER. Thus, mice bearing FSHR+-ID8-Defb29/Vegfa ovarian tumors for 7 days received daily treatments with MKC8866 (i.p., 300 mg/kg) or AMG-44 (i.p. 12 mg/kg) for one-week, and i.p. transfer of FSH-CER T cells at days 7 and 14 post-tumor challenge. […] We postulate that treatments for longer time periods with ER stress inhibitors will further potentiate the effect of FSH-CER T cells

[1] = tested on: FSHR+-ID8-Defb29/Vegfa ovarian tumors; test: ER stress-targeting therapy combined with FSH-CER T cells in ovarian tumor-bearing mice; type: in vivo; conditions: MKC8866 i.p. 300 mg/kg or AMG-44 i.p. 12 mg/kg daily for one week; FSH-CER T cells days 7 and 14
Method: The role of the PERK-Chop in the expansion of tumor TRM cells using conditional T cell Chop-null mice was evaluated. In agreement with the inhibitory effect of Chop in TRM development, higher frequency of TRM cells was detected in tumors from T cell-Chop^KO mice compared to controls (FIG. 23A). Next, we tested the effect of the inhibition of PERK (AMG-44) and IRE 1α (MKC8866) during the expansion of IL-2-supplemented human FSH-CER T cells. […] Also, we evaluated the therapeutic effect of the combination of ER stress-targeting therapy and FSH-CER. […]
Activation of the UPR in cancer cells mediates adaptation processes in the TME, whereas UPR priming in tumor-myeloid cells promotes their immunoregulatory activity. […] As main readouts of therapeutic efficacy, we will monitor tumor burden, overall survival, and tumor CER-T cell infiltration, persistence, and cytotoxic capacity (Exp. C.2.1.1). […] Additionally, we will sort DCs and MDSC from tumor sites and lymphoid organs to quantify the expression of ER stress gene markers, their ability to impair T cell proliferation and IFNγ production, and the levels of the UPR-related immunoinhibitory factors IL-6, PGE2, Cox-2, mPGES-1, and Arginase I. All required methods are established by our groups. […]

[2] = tested on: IRE1α-generated Xbp1s mRNA; test: Xbp1s mRNA in peritoneal leukocytes of ID8-Defb29/Vegfa-bearing mice; type: in vivo; conditions: MKC8866 300 mg/kg; leukocytes isolated 12 h later
Excerpt: (§1) FIGS. 19A, 19B, 19C, 19D, 19E, and 19F show Inhibition of IRE1α-XBP1 blunts tumor growth and activates effector T cell activity in tumors. […] Pictures denote the content of hemorrhagic ascites. […] FIGS. 19D, 19E, and 19F show the frequency of T cell populations in peritoneal tumors from ID8-Defb29/Vegfa-bearing mice treated with MKC8866 for two weeks. ***P<0.0001, **P<0.001 (Student's t-test). N=two repeats with a total of 8-10 mice per group.
(§2) We optimized a therapeutic scheme wherein female mice bearing orthotropic ID8-Defb29/Vegfa tumors for 7 days were treated daily for two weeks with vehicle or MKC8866, a novel small-molecule inhibitor that selectively blocks the RNase domain of IRE1α, impeding the generation of XBP1s.

ID8-Defb29/Vegfa tumors = test: Orthotopic ID8-Defb29/Vegfa ovarian tumor model treated with MKC8866; type: in vivo, mice
Excerpt: as §1, §2

For `COc1cc2c(C)c(CC(=O)N3CCOCC3)c(=O)oc2c(C=O)c1O` [MKC8866], the “frequency of FSH-CER TRM cells” value (human FSH-CER T cells) was “Higher frequency of FSH-CER TRM cells”, the “survival of hosts receiving FSH-CER T cells plus inhibitor” value [1] was “Prolonged survival” and the “levels of IRE1α-generated Xbp1s mRNA in peritoneal leukocytes” value [2] was “rapidly and significantly decreased”. The “PD-1 in intra-tumoral CD8+ T cells” value (ID8-Defb29/Vegfa tumors; MKC8866-treated mice vs vehicle) was “upregulation of PD-1; also recorded: substantial elevation of the immune checkpoint PD-1”, the “generation of hemorrhagic ascites” value (ID8-Defb29/Vegfa tumors; MKC8866 daily for two weeks vs vehicle) was “impaired generation of hemorrhagic ascites” and the malignant progression (ID8-Defb29/Vegfa tumors; MKC8866 daily for two weeks vs vehicle, weight gain) was “delayed malignant progression”. For the same compound, the “capacity of intra-tumoral CD8+ T cells to produce IFNγ and TNFα in situ” value (ID8-Defb29/Vegfa tumors; MKC8866 for two weeks) was “augmenting their capacity to produce both IFNγ and TNFα in situ” and the “proportion of proliferating (Ki67+) antigen-experienced (CD44+) CD8+ T cells infiltrating tumors” value (ID8-Defb29/Vegfa tumors; MKC8866 for two weeks) was “increased the proportion”.
